According to publication PMC8962522, “Direct interaction of TrkA/CD44v3 is essential for NGF-promoted aggressiveness of breast cancer cells” (Journal of Experimental & Clinical Cancer Research : CR, 2022):

Tested on: CD44v6 in MDA-MB-231 cells
Assay: Flow cytometry, plasma membrane CD44v6
Assay type: cell-based
Conditions: MDA-MB-231, flow cytometry
Excerpt: The CD44v3- and CD44v6-containing isoforms expressing respectively exon 8 and 11(Fig. 1A) can interact with growth factor receptors. Using COS-7 cells with low CD44 and TrkA expression (Supplementary Fig. 1A-D), we differentially expressed TrkA and CD44s or a CD44 variant, either CD44v3 or CD44v6 (Fig. 1B, supplementary Fig. 2). […] Additionally, we evaluated the expression of TrkA and CD44v3 at the membrane level or in cells by immunofluorescence in MDA-MB-231 cells.
Supplementary file 13046_2022_2314_MOESM3_ESM.pdf: Additional file 3: Supplementary Figure 1. Validation of the ectopic expression of CD44 and/or TrkA in COS-7 cells. The expression of all CD44 isoforms (A), CD44 variant 3 (B), CD44 variant 6 (C) and TrkA ([…]; D) was evaluated by RT–qPCR (normalized using PUM-1). No expression of CD44, CD44 variants [3 or 6] or TrkA was detected in COS-7 cells (A-D) compared with that in cells transfected with the expression plasmid carrying each protein. […] Quantification of the PLA results was performed using ImageJ software (30 randomly chosen fields per condition of three different experiments). […] CD44v3 and CD44v6 levels at the plasma membrane were assessed by flow cytometry (A-D). The plasma membrane and total TrkA and CD44v3 levels were also quantified by confocal microscopy (E-H). […] The CD44v3/NGF interaction was evaluated using microscale thermophoresis (MST). […]

“NGF: recombinant human β-NGF (Alomone Labs, Israel)” was tested. Which “increase of plasma membrane CD44v6” value (CD44v6-APC, histogram with No stim., NGF (5 min), NGF (30 min)) did it give?
Its value is 6%.

What about the “plasma membrane level of CD44v6 (in words)” value (NGF stimulation) of the same substance?
The value was “increased the plasma membrane level of CD44v3 but not CD44v6”.
